Experimental data published in patent publication US7833722B2, “Ligands for G protein-coupled receptor protein and use thereof” (Takeda Pharmaceutical Company Limited, priority 2004, dated 2010).

Columns and labels:
[1] = test system: SP-induced biting response (pain response); assay: Substance P-induced biting response after intrathecal administration to mice; type: in vivo; details: 0.66, 2.0 and 6.6 μg/mouse intrathecal with SP 10 μg, male ICR mice, counted for one minute, FIG. 3
[2] = target: T1, GPR17 (Homo sapiens, UniProt Q13304); assay: Suppression of forskolin-increased intracellular cAMP level in GPR17-expressed CHO cells; type: cell-based; parameters: expressed in transfected cells; details: forskolin 2 μM, 30 minutes, ALA in various concentrations, FIG. 2
T1 sequence (Q13304 29-367): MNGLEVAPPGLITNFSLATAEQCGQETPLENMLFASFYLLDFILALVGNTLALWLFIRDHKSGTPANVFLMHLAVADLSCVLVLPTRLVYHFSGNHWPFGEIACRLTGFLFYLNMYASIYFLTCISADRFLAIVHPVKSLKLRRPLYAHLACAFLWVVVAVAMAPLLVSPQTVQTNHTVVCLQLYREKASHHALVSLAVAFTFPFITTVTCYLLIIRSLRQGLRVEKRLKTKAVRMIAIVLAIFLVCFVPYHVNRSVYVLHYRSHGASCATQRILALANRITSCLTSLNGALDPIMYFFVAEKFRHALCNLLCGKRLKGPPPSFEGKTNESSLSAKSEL

[3] = target: T1, GPR17; assay: SRE-luciferase reporter assay in GPR17-expressed HeLa cells
[4] = target: T2, GPR40 (Homo sapiens, UniProt O14842); assay: SRE-luciferase reporter assay in GPR40 expression cells used for control; type: cell-based; details: PBG 1000 μM
T2 construct: expressed in transfected cells; host or cells: GPR40 expression cells
T2 sequence (O14842 whole entry, species assumed): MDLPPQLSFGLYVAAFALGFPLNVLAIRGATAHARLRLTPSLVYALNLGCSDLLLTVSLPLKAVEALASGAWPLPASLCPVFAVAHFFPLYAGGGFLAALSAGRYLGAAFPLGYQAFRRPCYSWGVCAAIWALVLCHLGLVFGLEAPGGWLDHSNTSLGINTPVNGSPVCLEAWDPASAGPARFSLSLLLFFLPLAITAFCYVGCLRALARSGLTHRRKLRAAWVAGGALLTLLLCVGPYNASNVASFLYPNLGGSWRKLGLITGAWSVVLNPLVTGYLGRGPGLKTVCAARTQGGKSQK

Row | luciferase activity (cps), GPR40 (control) [4] | Increased luciferase activity (cps) in the GPR17 expression cells by PBG ([3]; PBG 1000 μM) | luciferase activity in the GPR17 expression cells (in words) ([3]; PBG 1000 μM) | SMILES | effect on SP-induced biting response (pain response) [1] | intracellular cAMP level increased by forskolin addition [2] | luciferase activity in the GPR17-expressed cells (in words) ([3]; ALA 200 μM) | Increased Luciferase Activity (cps) by ALA in GPR17-Expressed Cells ([3]; ALA 200 μM, HeLa cells, 4 hours incubation)
1 |  |  |  | NCC(=O)CCC(=O)O [ALA, 5-aminolevulinic acid] | significant suppression effect | dose-dependent and specific decrease | increased luciferase activity | 6707 cps
2 | 3769 cps | 37999 cps | increased luciferase activity | NCc1[nH]cc(CCC(=O)O)c1CC(=O)O [PBG, porphobilinogen] |  |  |  | 
